Here are results for 13 molecules from ChEMBL document CHEMBL1143674, “Isoprenylated flavonoids from the stem bark of Erythrina abyssinica” (J Nat Prod, 2007).

The target in this assay is T1, Tyrosine-protein phosphatase non-receptor type 1 (Homo sapiens, UniProt P18031).
T1 sequence (P18031 whole entry): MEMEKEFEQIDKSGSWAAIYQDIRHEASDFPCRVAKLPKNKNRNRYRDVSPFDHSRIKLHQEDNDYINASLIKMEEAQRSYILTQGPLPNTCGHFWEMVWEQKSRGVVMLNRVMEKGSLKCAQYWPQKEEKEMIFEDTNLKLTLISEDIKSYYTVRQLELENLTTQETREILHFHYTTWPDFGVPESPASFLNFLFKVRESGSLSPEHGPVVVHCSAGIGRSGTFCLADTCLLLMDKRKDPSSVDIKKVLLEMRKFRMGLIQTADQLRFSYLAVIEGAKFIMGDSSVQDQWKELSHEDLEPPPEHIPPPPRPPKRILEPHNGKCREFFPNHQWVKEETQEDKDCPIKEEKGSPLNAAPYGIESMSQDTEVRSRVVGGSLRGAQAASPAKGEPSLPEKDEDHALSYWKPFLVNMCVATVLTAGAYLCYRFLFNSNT
The assay can be described thus: Inhibition of human recombinant PTP1B.

As a reminder, the IC50 is the concentration at which inhibition is half-maximal.

As for `CC(C)=CCc1cc([C@@H]2CC(=O)c3c(O)cc(O)cc3O2)c(CC=C(C)C)c(O)c1O` [SIGMOIDIN A], the IC50 is 14.4 µM. Take `CC(C)=CCc1cc([C@@H]2CC(=O)c3c(O)cc(O)cc3O2)cc(O)c1O` [SIGMOIDIN B]: the IC50 was 19.4 µM. The result for `CC(C)=CCc1c([C@H]2CC(=O)c3c(O)cc(O)cc3O2)cc2c(c1O)OC(C)(C)C=C2` [SIGMOIDIN F] reads 14.2 µM; that for `CC1(C)C=Cc2cc([C@@H]3CC(=O)c4c(O)cc(O)cc4O3)ccc2O1` [ABYSSINOFLAVONE V], > 60 µM; that for `COc1cc([C@@H]2CC(=O)c3ccc(O)cc3O2)cc(CC=C(C)C)c1O`, 19.2 µM. For `C=C(C)C(O)Cc1cc([C@@H]2CC(=O)c3c(O)cc(O)cc3O2)cc(CC=C(C)C)c1O` (stereo partly drawn) [ABYSSINOFLAVANONE VII], the IC50 was determined as 15.7 µM.

Regarding `COc1cc([C@@H]2CC(=O)c3c(O)cc(O)cc3O2)cc(CC=C(C)C)c1O` [ABYSSININ II], the IC50 stood at 17.3 µM.

On to `CC(C)=CCc1cc(/C=C/C(=O)c2ccc(O)cc2O)ccc1O` [LICOAGROCHALCONE A], for which the IC50 is 16.9 µM. With `COc1cc(C2CC(=O)c3c(O)cc(O)cc3O2)cc2c1OC(C)(C)C=C2` (stereo not drawn) [ABYSSININ I], the IC50 is 18.2 µM. The result for `CC1(C)C=Cc2cc([C@@H]3CC(=O)c4c(O)cc(O)cc4O3)cc(O)c2O1` [SIGMOIDIN C] reads > 60 µM. In the case of `CC(C)=CCc1cc([C@@H]2CC(=O)c3c(O)cc(O)cc3O2)cc2ccoc12` [ABYSSINOFLAVANONE VI], the IC50 worked out at 18.9 µM. Consider `CC(C)=CCc1cc(-c2cc(=O)c3c(O)cc(O)cc3o2)ccc1O`, for which the IC50 is 26.7 µM.

On to `CC(C)=CCc1cc(/C=C/C(=O)c2ccc(O)cc2O)cc(CC=C(C)C)c1O` [ABYSSINONE VI], for which the IC50 was found to be 20.6 µM.
